Experiments:
[1] = target: T1, human muscarinic acetylcholine M3 receptor (M3-ACh) (Homo sapiens, UniProt P20309); test: Muscarinic 3 Receptor Binding Assay ([3H]NMS competition, SPA); conditions: [3H]NMS 0.1 nM, CHO-K1 cell membranes, 16 hours at room temperature; read-out: M3 pIC50 (converted)
T1 construct: expressed in transfected cells; host or cells: CHO-K1 (Chinese Hamster Ovary) cell membranes
Summary of the method: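 Competition SPA binding of 0.1 nM [3H]NMS (quarter Kd) to membranes from CHO-K1 cells expressing human M3, in 20 mM HEPES pH 7.4, 5 mM MgCl2, 1% DMSO. Incubated 16 h at room temperature; non-specific binding with 1 µM atropine. pIC50 from 50% reduction of specific binding.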

[2] = target: T2, Adrenergic β2 (H292 cells) (Homo sapiens, UniProt P07550); test: Assay for Adrenergic β2 Mediated cAMP Production (concentration response, AlphaScreen cAMP detection); assay type: cell-based; conditions: for EC50: cAMP production, 60 minutes at room temperature, 300 μM rolipram, read-out: β2 pEC50 (converted); for β2 Intrinsic activity: fraction relative to the maximum activity determined for formoterol
T2 construct: endogenous in cells; host or cells: H292 cells
Summary of the method: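 H292 cells plated overnight, pre-treated with rolipram (300 μM final) 10 min, then compound 60 min at room temperature in HBSS/10 mM HEPES pH7.4/5 mM glucose, 1% DMSO. Lysate cAMP read by AlphaScreen against a cAMP standard curve; 4-parameter fit gives pEC50 and intrinsic activity as fraction of formoterol maximum.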

T2 sequence (P07550 whole entry): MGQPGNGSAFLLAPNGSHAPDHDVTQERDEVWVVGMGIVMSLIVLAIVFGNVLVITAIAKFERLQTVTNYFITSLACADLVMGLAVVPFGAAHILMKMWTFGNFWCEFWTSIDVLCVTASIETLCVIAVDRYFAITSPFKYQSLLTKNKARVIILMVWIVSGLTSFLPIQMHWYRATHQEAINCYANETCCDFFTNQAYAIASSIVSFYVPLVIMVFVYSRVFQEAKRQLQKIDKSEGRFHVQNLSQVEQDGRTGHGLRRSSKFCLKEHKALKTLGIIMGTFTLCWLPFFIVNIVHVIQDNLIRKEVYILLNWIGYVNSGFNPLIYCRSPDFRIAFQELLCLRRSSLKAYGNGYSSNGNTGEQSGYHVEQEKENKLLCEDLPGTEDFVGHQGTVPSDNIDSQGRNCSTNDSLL
T1 sequence (P20309 whole entry): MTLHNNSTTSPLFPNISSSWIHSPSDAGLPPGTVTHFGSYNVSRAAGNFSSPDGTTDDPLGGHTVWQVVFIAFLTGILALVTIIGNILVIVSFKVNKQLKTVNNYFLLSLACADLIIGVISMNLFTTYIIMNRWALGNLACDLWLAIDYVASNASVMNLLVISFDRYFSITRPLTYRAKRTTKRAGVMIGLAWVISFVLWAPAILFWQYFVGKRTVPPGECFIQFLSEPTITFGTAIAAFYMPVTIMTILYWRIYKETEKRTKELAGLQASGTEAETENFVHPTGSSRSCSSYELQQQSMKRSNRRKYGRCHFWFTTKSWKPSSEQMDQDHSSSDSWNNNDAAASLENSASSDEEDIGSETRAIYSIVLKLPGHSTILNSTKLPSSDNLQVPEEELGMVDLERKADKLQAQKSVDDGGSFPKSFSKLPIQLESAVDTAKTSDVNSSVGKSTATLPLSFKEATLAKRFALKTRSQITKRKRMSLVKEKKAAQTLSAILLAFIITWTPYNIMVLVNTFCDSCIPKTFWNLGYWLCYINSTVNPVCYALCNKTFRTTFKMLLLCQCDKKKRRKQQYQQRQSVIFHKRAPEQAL

SMILES | IC50 [1] | EC50 [2] | β2 Intrinsic activity [2]
CC(C)(C)c1nc(C(=O)N2CCOC3(CCN(Cc4cc(CCNC[C@H](O)c5ccc(O)c6[nH]c(=O)sc56)cs4)CC3)C2)cs1 [Example 43, (R)-7-(2-(2-(5-((4-(2-tert-Butylthiazole-4-carbonyl)-1-oxa-4,9-diazaspiro[5.5]undecan-9-yl)methyl)thiophen-3-yl)ethylamino)-1-hydroxyethyl)-4-hydroxybenzo[d]thiazol-2(3H)-one ditrifluoroacetate] | 39.8 nM | 5.01 nM | 0.8
CC(C)c1nc(C(=O)N2CC(F)(F)OC3(CCN(Cc4cccc(CCNC[C@H](O)c5ccc(O)c6[nH]c(=O)ccc56)c4)CC3)C2)cs1 [Example 44, (R)-5-(2-(3-((2,2-Difluoro-4-(2-isopropylthiazole-4-carbonyl)-1-oxa-4,9-diazaspiro[5.5]undecan-9-yl)methyl)phenethylamino)-1-hydroxyethyl)-8-hydroxyquinolin-2(1H)-one ditrifluoroacetate] | 3.16 nM | 2.51 nM | 1
CC(C)c1nc(C(=O)N2CCOC3(CCN(Cc4ccc(F)c(CCNC[C@H](O)c5ccc(O)c6[nH]c(=O)sc56)c4F)CC3)C2)cs1 [Example 45, (R)-7-(2-(2,6-Difluoro-3-((4-(2-isopropylthiazole-4-carbonyl)-1-oxa-4,9-diazaspiro[5.5]undecan-9-yl)methyl)phenethylamino)-1-hydroxyethyl)-4-hydroxybenzo[d]thiazol-2(3H)-one ditrifluoroacetate] | 5.01 nM | 10 nM | 0.8
CC(C)c1nc(C(=O)N2CCOC3(CCN(Cc4ccc(F)c(CCNC[C@H](O)c5ccc(O)c6[nH]c(=O)ccc56)c4F)CC3)C2)cs1 [Example 46, (R)-5-(2-(2,6-Difluoro-3-((4-(2-isopropylthiazole-4-carbonyl)-1-oxa-4,9-diazaspiro[5.5]undecan-9-yl)methyl)phenethylamino)-1-hydroxyethyl)-8-hydroxyquinolin-2(1H)-one ditrifluoroacetate] | 6.31 nM | 79.4 nM | 1
CC(C)c1nc(C(=O)N2CCOC3(CCN(Cc4ccc(F)c(CCNC[C@H](O)c5ccc(O)c6[nH]c(=O)sc56)c4)CC3)C2)cs1 [Example 47, (R)-7-(2-(2-Fluoro-5-((4-(2-isopropylthiazole-4-carbonyl)-1-oxa-4,9-diazaspiro[5.5]undecan-9-yl)methyl)phenethylamino)-1-hydroxyethyl)-4-hydroxybenzo[d]thiazol-2(3H)-one ditrifluoroacetate] | 0.501 nM | 15.8 nM | 0.9
CC(C)c1nc(C(=O)N2CCOC3(CCN(Cc4cccc(CCNC[C@H](O)c5ccc(O)c6[nH]c(=O)sc56)c4F)CC3)C2)cs1 [Example 48, (R)-7-(2-(2-Fluoro-3-((4-(2-isopropylthiazole-4-carbonyl)-1-oxa-4,9-diazaspiro[5.5]undecan-9-yl)methyl)phenethylamino)-1-hydroxyethyl)-4-hydroxybenzo[d]thiazol-2(3H)-one ditrifluoroacetate] | 0.794 nM | 5.01 nM | 0.9
Cc1nc2cc(C(=O)N3CCOC4(CCN(Cc5cc(CCNC[C@H](O)c6ccc(O)c7[nH]c(=O)sc67)cs5)CC4)C3)ccc2s1 [Example 49, (R)-4-Hydroxy-7-(1-hydroxy-2-(2-(5-((4-(2-methylbenzo[d]thiazole-5-carbonyl)-1-oxa-4,9-diazaspiro[5.5]undecan-9-yl)methyl)thiophen-3-yl)ethylamino)ethyl)benzo[d]thiazol-2(3H)-one ditrifluoroacetate] | 39.8 nM | 7.94 nM | 0.9

— patent publication US8148373B2, “Compounds” (AstraZeneca AB, priority 2008, dated 2012)
